According to patent publication US8273340B2, “Methods and compositions for attracting or repelling cockroaches” (The United States of America, as represented by the …, priority 2008, dated 2012):
Marks after values point to notes of the source that are not given here.

Tests used:
[1] = Release rate of attractants from sustained release delivery systems; type: physicochemical
From the text: Several secondary release rate control systems were developed. The first was a sachet that can contain the above polymer releasing system. This sachet can be either polyvinylidine chloride (PvdC) barrier film (e.g., Saranex™) enclosed in a thermally sealed metalized polyethylene container to eliminate release of active compounds, or a metalized polyethylene sachet with a removable seal that covers a vapor diffusion controlling orifice which when removed begins the release process from the internal polymer/carrier, or metalized polyethylene sachet which contains a small vial with a vapor controlling orifice. In the case of the Saranex™ sachet, the actual porosity of the Saranex™ control release is based on type of PVdC and thickness of the film. In the case of the metalized polyethylene sachet and internal polymer/carrier, a specific orifice size controlled the rate of diffusion of the active from the device, as shown in FIG. 4. An additional means of containing and reducing the release of the liquid active compounds and providing a solid support for use in the above delivery system involved sorbing the active compounds into an inert absorbent such as Membrana GmbH's expanded microporous polyolefin Accurel® MP100 which are granular or pelletized polyethylenes that have 10-50 μm air pockets throughout and can contain up to 90% of their volume in active compounds . MP100 was easily loaded with 80% by wt active ingredient due to its porosity. […] Thus, placement into the metalized polyethylene sachet with its diffusion regulating orifice was required.
Active compounds (1 gm active in Accurel® MP100) were sealed within the metalized polyethylene sachet, and a 0.5 mm hole placed into the film, and sealed until use with a metalized tape. Release rates for propyl propanoate, methyl tiglate, and butyl hexanoate were calculated at 15.5, 11.4, and 4.8 mg/day, respectively. Longevity of this system was calculated to be 64, 87, and 208 days, respectively.
Release rates for the thermoset urethane (Flexane® 80P) and synthetic rubbers systems ranged from 0.055 to 0.2 mg/cm^2/day, depending on durometer/hardness that is a measure of polymer crosslinking. Best results were obtained at durometer/hardness levels above D30. Release rates for the Saranex system without the release control provided by the metalized polyethylene and diffusion control orifice were 187, 236, and 7 mg/day for propyl propanoate, methyl tiglate, and butyl hexanoate, respectively.

[2] = test system: German roaches (B. germanica); assay: Two-harborage arena bioassay of sustained release polymer formulations; type: in vivo; details: counted after 24 hours
From the text: Evaluation of sustained release formulations: Three cockroach attractants (methyl tiglate, butyl heptanoate, and propyl proprionate) were formulated in one or more polymer formulations (Urethane, Pellethane, Santoprene, and/or Polyethylene) as indicated in Table 4.A sweater box (1.5×2.0×0.5 ft) provided the test arena. The sides of the arena were coated with a blend of mineral oil and Vaseline petroleum jelly. The tops of two 8 oz paper ice cream cups were tapped to the arena floor with masking tape and, prior to the addition of the test cockroaches, inverted cups without holes were fixed to the tapped lids. Twenty-five laboratory reared late stage nymphs or adult male German roaches (B. germanica), starved for 72 hrs, were added to the arena and allowed to calm down (ca. 1 hour). The starting inverted ice cream cups were carefully removed and each ice cream cup top was then supplied with a water tube (1.5 ml scintillation vial with water and stoppered with cotton), one lab chew food pellet, and either a test attractant polymer formulation or the corresponding polymer blank control. […] The cups were oriented so that the holes were facing each other. The number of roaches that sought harborage in the cups was counted after 24 hours by plugging the entrance holes with cotton, the roaches inside euthanized, and the numbers in each cup counted.

[3] = test system: Male cockroaches (Blattela germanica); assay: Y-tube olfactometer bioassay, test compound in mineral oil on filter paper; type: in vivo; details: for Percent Response: 0.5% w/v solution in mineral oil, mean of 3 replicates, 65% or more = significantly attractive (*), 35% or less = significantly repellent (**)
From the text: The German cockroach (Blattela germanica) is one of the most difficult cockroach species to control in homes and was used to illustrate the invention. […] Since the cockroaches never contact the test sample, their response is strictly to the molecules in the air stream.
Olfactometer Bioassay: The Y-tube bioassay apparatus was similar to that described by Vander Meer et al. (J. Chem. Ecol., 14: 825-838 (1988)). Compressed air (breathing-air quality) was passed into the two choice arms at 0.2 l/min for a total flow of 0.4 l/min. Flow rates were adjusted and controlled by two flow meters (Omega Engineering, Inc.). All tubing carrying the air was either copper or Teflon. Prior to evaluating treatment samples, a positive standard was put through the bioassay procedure. […] Test samples (10.0 μl) and the solvent blank (mineral oil, 10.0 μl) were applied to filter paper strips (0.3×1.0 cm, Whatman No. 1) and then each was placed into one of the two choice arms. Male cockroaches (Blattela germanica) were prepared for their introduction into the olfactometer by placing them in a Teflon tube (3 cm×0.8 cm) that had one end blocked with a piece of copper mesh screen. The open end of tube was closed with a lightly attached piece of tape. The cockroaches were introduced individually by removing the tape and quickly inserting the Teflon tube into the entrance arm of the olfactometer. […] The initial choice of the cockroach was recorded. The cockroach was removed and the process was repeated 10 times with the same test and blank samples. The 10 choices usually required less than 5 minutes to complete. After each set of 10 cockroaches had made their choice, the olfactometer was rinsed with acetone, dried, and reassembled for the next test. Each sample was retested with the same cockroaches, but with the sample and control in reverse positions. The sum of the results from the two tests represented one replicate. This procedure minimized bias inherent in the apparatus. A null hypothesis of equal numbers of cockroaches in each arm was tested with chi-square analysis. […] Results in-between were neutral.
The diameter of the Y part of the olfactometer provided a close fit for the cockroach, thus keeping it in the center of the walkway.

[4] = test system: cockroach; assay: Bioassays for cockroach attraction of attractants sorbed into thermoplastic polymers; type: in vivo
From the text: To alleviate the reactivity with the carrier polymers, we attempted to load active compounds into a series of thermoplastic polymers including urethanes and synthetic rubbers, based on the behavior of the active compounds as plasticizers. […] Propyl propanoate, methyl hexanoate, and methyl tiglate were loaded into a series of thermoplastic granulated feed materials, including 4-(1,1,3,3-tetramethylbutyl) with ethylene-5-ethylidenebicyclo[2.2.1]hept-2-ene-propene thermoplastic synthetic rubber (Santopren™ 203-40). Santoprene™ is a thermoplastic elastomer (TPE that is a mixture of in-situ cross linking of EPDM rubber and polypropylene compounds). Because of the longer life of Santopren™ in both extreme hot and cold environments, it is often preferred over the use of rubber. Pellethane™ 2102-55D is a polyester polycaprolactone polyurethane. Methyl hexanoate and methyl tiglate were sorbed using heat and pressure (60° C., 40 psi, 30 min) into the Santoprene® and were effective in bioassays for cockroach attraction. […] Loading rates of active compounds into the Santoprene®, using slightly elevated temperature (60° C.) and 40 psi pressure, were 8-12% by wt for the two compounds.

[5] = 1 gm active in Accurel MP100 in metalized polyethylene sachet with 0.5 mm hole
[6] = 1 gm active in Accurel MP100 in metalized polyethylene sachet with 0.5 mm hole, FIG. 3
[7] = Saranex system without metalized polyethylene and diffusion control orifice
[8] = sorbed into Santoprene (60° C., 40 psi, 30 min)

| SMILES | Longevity of the release system [1, 5] | Release rate [1, 6] | Release rate [1, 7] | attraction to treatment harborage versus polymer blank control (in words) ([2]; formulated in urethane) | Percent Response [3] | effect in bioassays for cockroach attraction (in words) ([4]; loaded into Dow Pellethane) | effect in bioassays for cockroach attraction (in words) [4, 8] | attraction to treatment harborage versus polymer blank control (in words) ([2]; formulated with Santoprene) | percent of responding cockroaches attracted ([3]; three concentrations (0.25 to 0.75) in mineral oil, N=1, FIG. 8) |
| --- | --- | --- | --- | --- | --- | --- | --- | --- | --- |
| CCCOC(=O)CC [Propyl Propanoate] | 64 days | 15.5 mg/day | 187 mg/day | significant attraction and subsequent aggregation | 70.0* % | neither of these systems worked well | neither of these systems worked well |  |  |
| C/C=C(\C)C(=O)OC [methyl tiglate, methyl ester of tiglic acid (trans-2-methyl-2-butenoic acid (methyl tiglate))] | 87 days | 11.4 mg/day | 236 mg/day |  | 80.0% | worked less well | effective | significant attraction and aggregation | ≥ 65% |
